Like-named read-outs stand apart in the source and are kept apart here.
Assays:
Experiment in all cases: SelectScreen Kinase Profiling, single point inhibition and IC50 for off-target kinases
Assay type in all cases: biochemical
[1] = target: off-target kinases (Homo sapiens, UniProt Q13882)
[2] = target: off-target kinases (Homo sapiens, UniProt P80192); conditions: MAP3K9 (MLK1), ATP Km app, ZLYTE
[3] = target: off-target kinases (Homo sapiens, UniProt Q8N5S9); conditions: CAMKK1 (CAMKKA), LanthaScreen Binding
[4] = target: off-target kinases (Homo sapiens, UniProt Q05397); conditions: PTK2 (FAK), ZLYTE, ATP Km app
[5] = target: T1, off-target kinases (Homo sapiens, UniProt Q9UEE5); conditions: STK17A (DRAK1), LanthaScreen Binding
T1 sequence (Q9UEE5 1-414): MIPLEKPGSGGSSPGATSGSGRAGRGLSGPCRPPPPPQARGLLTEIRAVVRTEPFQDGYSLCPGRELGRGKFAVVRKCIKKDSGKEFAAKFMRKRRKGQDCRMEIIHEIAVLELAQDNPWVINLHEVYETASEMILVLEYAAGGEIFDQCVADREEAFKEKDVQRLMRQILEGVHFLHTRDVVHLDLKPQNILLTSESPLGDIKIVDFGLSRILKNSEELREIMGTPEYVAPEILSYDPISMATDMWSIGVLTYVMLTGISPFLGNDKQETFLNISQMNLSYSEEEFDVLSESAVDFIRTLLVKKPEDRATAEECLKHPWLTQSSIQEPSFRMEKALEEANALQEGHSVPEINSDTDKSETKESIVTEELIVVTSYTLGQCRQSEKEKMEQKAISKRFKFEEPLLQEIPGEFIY

[6] = target: T2, off-target kinases (Homo sapiens, UniProt Q04771, R206H); conditions: ACVR1 (ALK2) R206H, LanthaScreen Binding
T2 sequence (Q04771 21-509 R206H): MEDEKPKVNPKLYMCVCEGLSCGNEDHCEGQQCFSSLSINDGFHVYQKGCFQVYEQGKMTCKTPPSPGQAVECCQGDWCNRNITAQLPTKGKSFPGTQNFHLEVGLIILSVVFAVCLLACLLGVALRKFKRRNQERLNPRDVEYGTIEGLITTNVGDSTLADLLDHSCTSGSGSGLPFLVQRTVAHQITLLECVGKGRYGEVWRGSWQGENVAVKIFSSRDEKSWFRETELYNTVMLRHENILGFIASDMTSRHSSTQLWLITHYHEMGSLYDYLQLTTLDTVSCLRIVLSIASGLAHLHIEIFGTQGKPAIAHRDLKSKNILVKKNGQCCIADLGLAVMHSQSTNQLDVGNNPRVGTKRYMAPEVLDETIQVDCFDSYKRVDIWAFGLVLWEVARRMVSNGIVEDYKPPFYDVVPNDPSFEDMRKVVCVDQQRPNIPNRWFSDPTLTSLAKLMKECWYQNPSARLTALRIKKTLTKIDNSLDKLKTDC

[7] = target: off-target kinases (Homo sapiens, UniProt P29317); conditions: EPHA2, ZLYTE, ATP Km app
Sequence of off-target kinases (Homo sapiens, UniProt P29317) (P29317 24-976): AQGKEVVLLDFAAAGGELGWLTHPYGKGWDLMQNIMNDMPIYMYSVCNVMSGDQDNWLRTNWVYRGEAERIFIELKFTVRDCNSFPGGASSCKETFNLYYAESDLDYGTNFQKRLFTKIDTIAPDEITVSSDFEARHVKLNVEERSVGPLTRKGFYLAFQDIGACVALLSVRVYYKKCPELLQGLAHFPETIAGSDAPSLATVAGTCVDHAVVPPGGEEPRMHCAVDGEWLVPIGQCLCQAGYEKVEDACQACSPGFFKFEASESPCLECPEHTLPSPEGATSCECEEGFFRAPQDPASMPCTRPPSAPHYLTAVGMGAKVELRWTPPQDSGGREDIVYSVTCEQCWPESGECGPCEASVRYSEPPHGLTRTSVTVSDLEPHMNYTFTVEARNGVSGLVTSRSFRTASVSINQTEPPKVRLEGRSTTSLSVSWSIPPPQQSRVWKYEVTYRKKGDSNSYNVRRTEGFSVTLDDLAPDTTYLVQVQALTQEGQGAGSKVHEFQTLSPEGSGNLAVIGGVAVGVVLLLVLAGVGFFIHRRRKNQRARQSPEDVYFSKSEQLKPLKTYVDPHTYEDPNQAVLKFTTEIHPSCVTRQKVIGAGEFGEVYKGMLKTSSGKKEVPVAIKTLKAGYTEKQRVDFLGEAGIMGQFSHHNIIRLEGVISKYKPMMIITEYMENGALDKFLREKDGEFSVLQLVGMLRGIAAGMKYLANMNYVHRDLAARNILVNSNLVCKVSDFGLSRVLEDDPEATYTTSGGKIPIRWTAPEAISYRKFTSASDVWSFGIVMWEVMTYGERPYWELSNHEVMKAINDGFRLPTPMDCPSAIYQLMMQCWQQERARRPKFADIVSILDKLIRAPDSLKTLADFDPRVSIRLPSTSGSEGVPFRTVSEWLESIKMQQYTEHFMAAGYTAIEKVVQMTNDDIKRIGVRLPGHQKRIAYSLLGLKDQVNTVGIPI

Sequence of off-target kinases (Homo sapiens, UniProt Q8N5S9) (Q8N5S9 whole entry): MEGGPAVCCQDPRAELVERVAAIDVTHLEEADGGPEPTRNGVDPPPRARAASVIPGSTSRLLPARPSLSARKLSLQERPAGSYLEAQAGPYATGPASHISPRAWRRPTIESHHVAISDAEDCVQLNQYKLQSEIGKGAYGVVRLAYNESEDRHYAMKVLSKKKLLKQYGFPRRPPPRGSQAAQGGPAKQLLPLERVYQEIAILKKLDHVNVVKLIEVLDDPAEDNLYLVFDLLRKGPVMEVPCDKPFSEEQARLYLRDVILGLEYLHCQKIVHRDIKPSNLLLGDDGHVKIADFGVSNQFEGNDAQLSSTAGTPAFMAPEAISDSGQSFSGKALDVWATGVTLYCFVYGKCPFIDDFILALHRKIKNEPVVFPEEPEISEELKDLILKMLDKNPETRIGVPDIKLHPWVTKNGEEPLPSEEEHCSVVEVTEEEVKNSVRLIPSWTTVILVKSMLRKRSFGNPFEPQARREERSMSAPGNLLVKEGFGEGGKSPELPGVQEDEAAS
Sequence of off-target kinases (Homo sapiens, UniProt Q13882) (Q13882 whole entry): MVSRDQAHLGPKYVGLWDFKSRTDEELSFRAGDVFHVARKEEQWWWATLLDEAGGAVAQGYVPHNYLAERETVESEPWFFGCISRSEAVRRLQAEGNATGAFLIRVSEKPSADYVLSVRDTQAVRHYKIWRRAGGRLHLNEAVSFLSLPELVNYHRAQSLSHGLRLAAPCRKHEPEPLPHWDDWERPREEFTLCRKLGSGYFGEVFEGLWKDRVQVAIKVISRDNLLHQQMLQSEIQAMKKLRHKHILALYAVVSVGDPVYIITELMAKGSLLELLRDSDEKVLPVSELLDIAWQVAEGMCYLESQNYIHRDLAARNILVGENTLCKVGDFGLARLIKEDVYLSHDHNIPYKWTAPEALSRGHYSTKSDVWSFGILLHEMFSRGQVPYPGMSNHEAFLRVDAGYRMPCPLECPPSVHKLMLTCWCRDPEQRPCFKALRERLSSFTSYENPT
Sequence of off-target kinases (Homo sapiens, UniProt P80192) (P80192 whole entry): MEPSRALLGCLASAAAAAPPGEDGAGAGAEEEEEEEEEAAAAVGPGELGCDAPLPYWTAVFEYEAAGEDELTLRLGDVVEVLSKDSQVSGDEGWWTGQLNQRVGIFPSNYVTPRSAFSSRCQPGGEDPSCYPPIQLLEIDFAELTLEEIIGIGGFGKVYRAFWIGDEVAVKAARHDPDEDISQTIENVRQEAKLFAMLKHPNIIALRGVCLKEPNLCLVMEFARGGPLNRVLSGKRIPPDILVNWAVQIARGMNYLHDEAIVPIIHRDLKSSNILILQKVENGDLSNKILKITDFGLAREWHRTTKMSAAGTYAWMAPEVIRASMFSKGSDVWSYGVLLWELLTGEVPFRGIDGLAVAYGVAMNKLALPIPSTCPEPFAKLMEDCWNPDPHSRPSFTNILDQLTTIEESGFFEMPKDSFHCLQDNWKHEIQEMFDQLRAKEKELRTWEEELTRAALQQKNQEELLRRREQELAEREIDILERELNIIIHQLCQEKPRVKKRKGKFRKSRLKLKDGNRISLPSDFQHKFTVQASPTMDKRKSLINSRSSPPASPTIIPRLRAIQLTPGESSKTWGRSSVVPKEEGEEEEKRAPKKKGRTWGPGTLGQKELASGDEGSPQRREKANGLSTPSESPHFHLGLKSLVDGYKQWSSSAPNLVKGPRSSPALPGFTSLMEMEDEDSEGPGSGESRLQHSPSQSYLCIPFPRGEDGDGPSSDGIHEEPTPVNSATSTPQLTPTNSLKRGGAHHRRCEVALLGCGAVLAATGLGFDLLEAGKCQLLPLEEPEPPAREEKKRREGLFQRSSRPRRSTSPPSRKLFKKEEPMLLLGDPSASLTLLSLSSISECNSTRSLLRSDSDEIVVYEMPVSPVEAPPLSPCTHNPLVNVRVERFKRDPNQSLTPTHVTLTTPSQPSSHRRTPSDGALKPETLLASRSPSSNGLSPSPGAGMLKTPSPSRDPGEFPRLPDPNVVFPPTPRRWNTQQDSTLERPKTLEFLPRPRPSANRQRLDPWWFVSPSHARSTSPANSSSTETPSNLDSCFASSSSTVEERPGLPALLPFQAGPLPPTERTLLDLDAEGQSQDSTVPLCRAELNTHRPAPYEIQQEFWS
Sequence of off-target kinases (Homo sapiens, UniProt Q05397) (Q05397 whole entry): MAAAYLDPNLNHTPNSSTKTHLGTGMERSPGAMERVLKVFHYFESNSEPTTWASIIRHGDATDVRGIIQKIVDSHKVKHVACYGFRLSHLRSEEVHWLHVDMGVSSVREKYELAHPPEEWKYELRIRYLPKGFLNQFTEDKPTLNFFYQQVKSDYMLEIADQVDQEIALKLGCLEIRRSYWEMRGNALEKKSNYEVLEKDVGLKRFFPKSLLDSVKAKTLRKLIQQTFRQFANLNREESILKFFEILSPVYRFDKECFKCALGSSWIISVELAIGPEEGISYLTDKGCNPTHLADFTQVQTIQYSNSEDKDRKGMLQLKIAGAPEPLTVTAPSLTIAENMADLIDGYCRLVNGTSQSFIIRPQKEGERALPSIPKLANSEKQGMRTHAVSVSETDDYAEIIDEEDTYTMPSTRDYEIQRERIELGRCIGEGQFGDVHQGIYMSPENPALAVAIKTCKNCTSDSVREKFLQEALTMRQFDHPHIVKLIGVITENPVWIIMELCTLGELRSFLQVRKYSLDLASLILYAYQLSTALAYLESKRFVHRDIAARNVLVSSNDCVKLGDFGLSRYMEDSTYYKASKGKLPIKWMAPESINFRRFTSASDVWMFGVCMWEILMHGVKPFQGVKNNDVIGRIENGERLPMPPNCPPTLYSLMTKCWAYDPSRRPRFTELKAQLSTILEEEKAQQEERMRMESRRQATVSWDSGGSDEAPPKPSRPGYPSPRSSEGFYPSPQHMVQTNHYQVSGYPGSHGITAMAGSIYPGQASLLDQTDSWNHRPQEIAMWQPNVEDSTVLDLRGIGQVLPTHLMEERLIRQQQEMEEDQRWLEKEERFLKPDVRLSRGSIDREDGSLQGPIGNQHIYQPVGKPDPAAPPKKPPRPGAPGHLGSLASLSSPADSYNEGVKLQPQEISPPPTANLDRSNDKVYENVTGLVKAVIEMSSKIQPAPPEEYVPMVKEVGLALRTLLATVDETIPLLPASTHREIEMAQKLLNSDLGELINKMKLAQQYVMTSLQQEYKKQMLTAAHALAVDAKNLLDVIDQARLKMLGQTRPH

## N#Cc1cc(-c2ncnc(Nc3ccc(N4CCN(C5COC5)CC4)cc3)n2)ccc1OC1CCOCC1 [Compound 1, 5-(4-((4-(4-(oxetan-3-yl)piperazin-1-yl)phenyl)amino)-1,3,5-triazin-2-yl)-2-((tetrahydro-2H-pyran-4-yl)oxy)benzonitrile]
[1]; PTK6 (Brk), ZLYTE, ATP Km app, read-out: % Inhibition 2
  inhibition: -1%
[1]; read-out: % Inhibition 1
  inhibition: -1%
[1]; read-out: % Inhibition Avg
  inhibition: -1%
[2]; read-out: % Inhibition 1
  inhibition: 68%
[2]; read-out: % Inhibition 2
  inhibition: 73%
[2]; read-out: % Inhibition Avg
  inhibition: 70%
[3]; read-out: % Inhibition 1
  inhibition: 2%
[3]; read-out: % Inhibition 2
  inhibition: -1%
[3]; read-out: % Inhibition Avg
  inhibition: 0%
[4]; read-out: % Inhibition 1
  inhibition: 0%
[4]; read-out: % Inhibition 2
  inhibition: 2%
[4]; read-out: % Inhibition Avg
  inhibition: 1%
[5]; read-out: % Inhibition 1
  inhibition: 101%
[5]; read-out: % Inhibition 2
  inhibition: 101%
[5]; read-out: % Inhibition Avg
  inhibition: 101%
[6]; read-out: % Inhibition 1
  inhibition: 88%
[6]; read-out: % Inhibition 2
  inhibition: 93%
[6]; read-out: % Inhibition Avg
  inhibition: 91%
[7]; read-out: % Inhibition 1
  inhibition: 1%
[7]; read-out: % Inhibition 2
  inhibition: 12%
[7]; read-out: % Inhibition Avg
  inhibition: 6%
